Measured values from patent publication US10131744B2, “Antimicrobial polyamide compositions and mastitis treatment” (priority 2013, dated 2018).
In brackets after ≈: the same amount, converted by molar mass. Read-outs that look alike come from different tables or passages of the source.

Key:
Format in all cases: cell-based
[1] = tested on: Mannheimia haemolytica; assay: MIC in broth against Mannheimia haemolytica
Description: (§1) The antimicrobial efficacy of twenty-five antimicrobial polymers (and Erythromycin) was evaluated using an MIC assay. For each study, a doubling dilution concentration of each antimicrobial polymer was prepared at 2× the final concentration range (0.12 to 16 μg/mL), and 100 μL of the API-null formulation was dispensed into the negative control wells. Overall, the antimicrobial polymer-containing compositions performed comparably well, or better, against the pathogens, as compared to Erythromycin (ERY).

[2] = tested on: Mycoplasma bovis; assay: organism not typed
[3] = tested on: Histophilus somni; assay: MIC in broth against Histophilus somni
Description: as §1

[4] = tested on: Moraxella bovis; assay: MIC in broth against Moraxella bovis
Description: as §1

[5] = tested on: Streptococcus agalactiae; assay: MIC in broth against Streptococcus agalactiae; design: unit not given beside the values
Description: as §1

[6] = tested on: Enterobacter species; assay: MIC in broth against Enterobacter species
Description: as §1

[7] = tested on: Escherichia coli; assay: MIC in broth against Escherichia coli
Description: as §1

[8] = tested on: Streptococcus uberis; assay: MIC in broth against Streptococcus uberis
Description: as §1

[9] = tested on: Proteus mirabilis; assay: MIC in broth against Proteus mirabilis
Description: as §1

[10] = tested on: Staphylococcus aureus (including MRSA); assay: MIC in broth against Staphylococcus aureus (including MRSA); design: MIC against Staphylococcus aureus including MRSA: unit: μg/mL
Description: as §1

[11] = tested on: Streptococcus dysgalactiae; assay: MIC in broth against Streptococcus dysgalactiae
Description: as §1

In the case of CC[C@H]1OC(=O)[C@H](C)[C@@H](O[C@H]2C[C@@](C)(OC)[C@@H](O)[C@H](C)O2)[C@H](C)[C@@H](O[C@@H]2O[C@H](C)C[C@H](N(C)C)[C@H]2O)[C@](C)(O)C[C@@H](C)C(=O)[C@H](C)[C@@H](O)[C@]1(C)O [Ery, Erythromycin], the MIC ([1]; isolate # 158) is reported as 4 mg/L (≈ 5.45 µM), the MIC ([1]; isolate # 159) is reported as over 8 mg/L and the MIC ([1]; isolate # 160) is reported as 4 mg/L (≈ 5.45 µM). The MIC ([1]; isolate # 161) was over 8 mg/L, the MIC ([1]; isolate # 162) was 2 mg/L (≈ 2.73 µM) and the MIC ([1]; isolate # 163) was 4 mg/L (≈ 5.45 µM). The MIC ([1]; isolate # 164) was over 8 mg/L, the MIC ([1]; isolate # 165) was over 8 mg/L and the MIC ([1]; isolate # 166) was 1 mg/L (≈ 1.36 µM). For the same compound, the MIC ([1]; isolate # 167) was 4 mg/L (≈ 5.45 µM), the MIC [2] was 4 mg/L (≈ 5.45 µM) and the MIC ([2]; Mycoplasmopsis bovis, isolate # 248 (mastitis), read-out: MIC against Mycoplasma bovis) was over 8 mg/L. The MIC ([2]; Mycoplasmopsis bovis, isolate # 249 (mastitis), read-out: MIC against Mycoplasma bovis) was over 8 mg/L, the MIC ([2]; Mycoplasmopsis bovis, isolate # 250 (mastitis), read-out: MIC against Mycoplasma bovis) was over 8 mg/L and the MIC ([2]; Mycoplasmopsis bovis, isolate # 251 (mastitis), read-out: MIC against Mycoplasma bovis) was over 8 mg/L. For the same compound, the MIC ([2]; Mycoplasmopsis bovis, isolate # 252 (mastitis), read-out: MIC against Mycoplasma bovis) was over 8 mg/L, the MIC ([2]; Mycoplasmopsis bovis, isolate # 253 (mastitis), read-out: MIC against Mycoplasma bovis) was 4 mg/L (≈ 5.45 µM) and the MIC ([2]; Mycoplasmopsis bovis, isolate # 254 (mastitis), read-out: MIC against Mycoplasma bovis) was over 8 mg/L. It also gave an MIC ([2]; Mycoplasmopsis bovis, isolate # 255 (mastitis), read-out: MIC against Mycoplasma bovis) of over 8 mg/L, an MIC ([2]; Mycoplasmopsis bovis, isolate # 256 (mastitis), read-out: MIC against Mycoplasma bovis) of over 8 mg/L and an MIC ([2]; Mycoplasmopsis bovis, isolate # 257 (mastitis), read-out: MIC against Mycoplasma bovis) of over 8 mg/L. The MIC ([3]; H. somni (H-15) ATTC 700025, read-out: MIC) was 1 mg/L (≈ 1.36 µM), the MIC ([3]; isolates # 238-240, 243, 246 (BRD), read-out: MIC against Histophilus somni) was over 8 mg/L and the MIC ([3]; isolates # 241, 247 (BRD), read-out: MIC against Histophilus somni) was 0.5 mg/L (≈ 0.681 µM). The MIC ([3]; isolates # 242, 244, 245 (BRD), read-out: MIC against Histophilus somni) was 1 mg/L (≈ 1.36 µM), the MIC ([4]; isolate # 88) was 0.3 mg/L (≈ 0.409 µM) and the MIC ([4]; isolate # 89) was 0.5 mg/L (≈ 0.681 µM). The MIC ([4]; isolate # 90) was 0.5 mg/L (≈ 0.681 µM), the MIC ([4]; isolate # 91) was 1 mg/L (≈ 1.36 µM) and the MIC ([4]; isolate # 92) was 0.5 mg/L (≈ 0.681 µM). It also gave an MIC ([4]; isolate # 93) of 0.3 mg/L (≈ 0.409 µM), an MIC ([4]; isolate # 94) of 0.5 mg/L (≈ 0.681 µM) and an MIC ([4]; isolate # 95) of 0.5 mg/L (≈ 0.681 µM). For the same compound, the MIC ([4]; isolate # 96) was 0.5 mg/L (≈ 0.681 µM), the MIC ([4]; isolate # 97) was 0.5 mg/L (≈ 0.681 µM) and the “MIC against Streptococcus agalactiae” value ([5]; isolate # 188) was 0.03. For the same compound, the “MIC against Streptococcus agalactiae” value ([5]; isolate # 189) was 0.06, the “MIC against Streptococcus agalactiae” value ([5]; isolate # 190) was 0.03 and the “MIC against Streptococcus agalactiae” value ([5]; isolate # 191) was 0.03. For the same compound, the “MIC against Streptococcus agalactiae” value ([5]; isolate # 192) was 0.06, the “MIC against Streptococcus agalactiae” value ([5]; isolate # 193) was 0.06 and the “MIC against Streptococcus agalactiae” value ([5]; isolate # 194) was 0.03. The “MIC against Streptococcus agalactiae” value ([5]; isolate # 195) was 0.03, the “MIC against Streptococcus agalactiae” value ([5]; isolate # 196) was 0.03 and the “MIC against Streptococcus agalactiae” value ([5]; isolate # 197) was 0.03. The MIC ([6]; Enterobacter, isolate # 26 (mastitis)) was over 8 mg/L, the “MIC against Enterobacter species” value ([6]; isolate # 21 (mastitis)) was over 8 mg/L and the “MIC against Enterobacter species” value ([6]; isolate # 22 (mastitis)) was over 8 mg/L. The “MIC against Enterobacter species” value ([6]; isolate # 23 (mastitis)) was over 8 mg/L, the “MIC against Enterobacter species” value ([6]; isolate # 24 (mastitis)) was over 8 mg/L and the “MIC against Enterobacter species” value ([6]; isolate # 25 (mastitis)) was over 8 mg/L. The “MIC against Enterobacter species” value ([6]; isolate # 27 (mastitis)) was over 8 mg/L, the MIC ([7]; isolate # 1 (mastitis)) was 2 mg/L (≈ 2.73 µM) and the MIC ([7]; isolate # 2 (mastitis)) was over 8 mg/L. For the same compound, the MIC ([7]; isolate # 3 (mastitis)) was over 8 mg/L, the MIC ([7]; isolate # 4 (mastitis)) was over 8 mg/L and the MIC ([7]; isolate # 5 (mastitis)) was over 8 mg/L. The MIC ([7]; isolate # 6 (mastitis)) was over 8 mg/L, the MIC ([7]; isolate # 7 (mastitis)) was over 8 mg/L and the MIC ([7]; isolate # 8 (mastitis)) was over 8 mg/L. The MIC ([7]; isolate # 9 (mastitis)) was over 8 mg/L, the MIC ([7]; isolate # 10 (mastitis)) was over 8 mg/L and the MIC ([7]; isolate # 11 (canine wound)) was over 8 mg/L. It also gave an MIC ([7]; isolate # 12 (canine wound)) of over 8 mg/L, an MIC ([7]; isolate # 13 (canine wound)) of over 8 mg/L and an MIC ([7]; isolate # 14 (canine wound)) of over 8 mg/L. The MIC ([7]; isolate # 15 (canine wound)) was over 8 mg/L, the MIC ([7]; isolate # 16 (canine wound)) was over 8 mg/L and the MIC ([7]; isolate # 17 (canine wound)) was over 8 mg/L. For the same compound, the MIC ([7]; isolate # 18 (canine wound)) was over 8 mg/L, the MIC ([7]; isolate # 19 (canine wound)) was over 8 mg/L and the MIC ([7]; isolate # 20 (canine wound)) was over 8 mg/L. The MIC ([8]; isolate # 218) was 0.06 mg/L (≈ 0.0818 µM), the MIC ([8]; isolate # 219) was 0.5 mg/L (≈ 0.681 µM) and the MIC ([8]; isolate # 220) was 0.06 mg/L (≈ 0.0818 µM). For the same compound, the MIC ([8]; isolate # 221) was 1 mg/L (≈ 1.36 µM), the MIC ([8]; isolate # 222) was 0.06 mg/L (≈ 0.0818 µM) and the MIC ([8]; isolate # 223) was 0.06 mg/L (≈ 0.0818 µM). For the same compound, the MIC ([8]; isolate # 224) was 0.06 mg/L (≈ 0.0818 µM), the MIC ([8]; isolate # 225) was 2 mg/L (≈ 2.73 µM) and the MIC ([8]; isolate # 226) was 0.06 mg/L (≈ 0.0818 µM). The MIC ([8]; isolate # 227) was 2 mg/L (≈ 2.73 µM), the MIC ([9]; Proteus mirabilis, isolate # 52) was over 8 mg/L and the “MIC against Proteus mirabilis” value ([9]; isolate # 48) was over 8 mg/L. For the same compound, the “MIC against Proteus mirabilis” value ([9]; isolate # 49) was over 8 mg/L, the “MIC against Proteus mirabilis” value ([9]; isolate # 50) was over 8 mg/L and the “MIC against Proteus mirabilis” value ([9]; isolate # 51) was over 8 mg/L. The “MIC against Proteus mirabilis” value ([9]; isolate # 53) was over 8 mg/L, the “MIC against Proteus mirabilis” value ([9]; isolate # 54) was over 8 mg/L and the “MIC against Proteus mirabilis” value ([9]; isolate # 55) was over 8 mg/L. The “MIC against Proteus mirabilis” value ([9]; isolate # 56) was over 8 mg/L, the “MIC against Proteus mirabilis” value ([9]; isolate # 57) was over 8 mg/L and the MIC ([10]; Staphylococcus aureus, ATCC 29213 / MRSA, S. aureus (Sta-3) ATCC 29213) was 0.5 mg/L (≈ 0.681 µM). For the same compound, the “MIC against Staphylococcus aureus including MRSA” value ([10]; strain # 98) was 0.25, the “MIC against Staphylococcus aureus including MRSA” value ([10]; strain # 99) was 0.25 and the “MIC against Staphylococcus aureus including MRSA” value ([10]; strain # 100) was 0.25. For the same compound, the “MIC against Staphylococcus aureus including MRSA” value ([10]; strain # 101) was 0.25, the “MIC against Staphylococcus aureus including MRSA” value ([10]; strain # 102) was 0.25 and the “MIC against Staphylococcus aureus including MRSA” value ([10]; strain # 103) was 0.25. For the same compound, the “MIC against Staphylococcus aureus including MRSA” value ([10]; strain # 104) was 0.25, the “MIC against Staphylococcus aureus including MRSA” value ([10]; strain # 105) was 0.25 and the “MIC against Staphylococcus aureus including MRSA” value ([10]; strain # 106) was 0.25. For the same compound, the “MIC against Staphylococcus aureus including MRSA” value ([10]; strain # 107) was 0.25, the “MIC against Staphylococcus aureus including MRSA” value ([10]; strain # 108) was over 8 and the “MIC against Staphylococcus aureus including MRSA” value ([10]; strain # 109) was 1. The “MIC against Staphylococcus aureus including MRSA” value ([10]; strain # 110) was over 8, the “MIC against Staphylococcus aureus including MRSA” value ([10]; strain # 111) was over 8 and the “MIC against Staphylococcus aureus including MRSA” value ([10]; strain # 112) was 0.5. The “MIC against Staphylococcus aureus including MRSA” value ([10]; strain # 113) was over 8, the “MIC against Staphylococcus aureus including MRSA” value ([10]; strain # 114) was over 8 and the “MIC against Staphylococcus aureus including MRSA” value ([10]; strain # 115) was over 8. For the same compound, the “MIC against Staphylococcus aureus including MRSA” value ([10]; strain # 116) was over 8, the “MIC against Staphylococcus aureus including MRSA” value ([10]; strain # 117) was over 8 and the “MIC against Staphylococcus aureus including MRSA” value ([10]; strain # 118) was over 8. For the same compound, the “MIC against Staphylococcus aureus including MRSA” value ([10]; strain # 119) was over 8, the “MIC against Staphylococcus aureus including MRSA” value ([10]; strain # 120) was over 8 and the “MIC against Staphylococcus aureus including MRSA” value ([10]; strain # 121) was over 8. The “MIC against Staphylococcus aureus including MRSA” value ([10]; strain # 122) was over 8, the “MIC against Staphylococcus aureus including MRSA” value ([10]; strain # 123) was over 8 and the “MIC against Staphylococcus aureus including MRSA” value ([10]; strain # 124) was over 8. For the same compound, the “MIC against Staphylococcus aureus including MRSA” value ([10]; strain # 125) was over 8, the “MIC against Staphylococcus aureus including MRSA” value ([10]; strain # 126) was over 8 and the “MIC against Staphylococcus aureus including MRSA” value ([10]; strain # 127) was over 8. For the same compound, the MIC ([11]; isolate # 208) was 0.06 mg/L (≈ 0.0818 µM), the MIC ([11]; isolate # 209) was 0.06 mg/L (≈ 0.0818 µM) and the MIC ([11]; isolate # 210) was 0.12 mg/L (≈ 0.164 µM). For the same compound, the MIC ([11]; isolate # 211) was 0.06 mg/L (≈ 0.0818 µM), the MIC ([11]; isolate # 212) was 0.12 mg/L (≈ 0.164 µM) and the MIC ([11]; isolate # 213) was 0.12 mg/L (≈ 0.164 µM). For the same compound, the MIC ([11]; isolate # 214) was 0.06 mg/L (≈ 0.0818 µM), the MIC ([11]; isolate # 215) was 0.12 mg/L (≈ 0.164 µM) and the MIC ([11]; isolate # 216) was 0.06 mg/L (≈ 0.0818 µM). It also gave an MIC ([11]; isolate # 217) of 0.12 mg/L (≈ 0.164 µM).
